Data on twelve molecules can be found in patent US20250129103A1, “METHODS FOR TREATMENT OF CANCER” (Frontier Medicines Corporation, priority 2022, published 2025).

Each structure is given as a SMILES string. ≈ marks a conversion by molar mass, not a printed value. Where only a bound is given, the exact number is not on record here.

By IC50 is commonly meant the concentration that inhibits the measured activity by half.

The target of data set [1] is KRAS G12C (GMPPNP-loaded) and PI3Ka (Ras-binding domain) interaction (Homo sapiens (Human), UniProt P01116, C118S/C51S/C80L/G12C). The experiment in a line: Inhibition of KRAS G12C and PI3Ka binding (AlphaScreen). The conditions noted are these: KRAS G12C loaded with GMPPNP, PI3Ka RBD, 2 hours preincubation; read-out: PI3K RBD K-Ras IC50. The gist of the method:
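Biotin-AviTag Cys-light KRAS G12C (aa 1-169, C51S/C80L/C118S), GMPPNP-loaded, 1.5 nM, preincubated 2 h with compound, then His-tagged PI3Ka RBD (aa 157-300, 100 nM) plus AlphaScreen beads added for 60-90 min, RT. Buffer Hepes pH 7.4, 10 μM GMPPNP, 2% DMSO; 10-point 1:3 from 50 μM; 4-parameter IC50.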
In general terms: Bead proximity is the source of the signal in Alpha formats.

Data set [2] in a line: Determination of logD (1-octanol / phosphate buffer pH 7.4). Type of data set: physicochemical. The conditions noted are these: 1-octanol/phosphate buffer, pH 7.4, pH 7.4, 1-octanol/phosphate buffer; read-out: Log D, pH 7.4. The gist of the method:
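Shake-flask partition between 1-octanol and 100 mM phosphate buffer pH 7.4, each phase presaturated with the other overnight. Tubes shaken 1 h at 800 rpm, room temperature, then centrifuged. Both phases quantified by LCMS and logD calculated from the ratio.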

Data set [3] can be described thus: Determination of kinetic solubility (pH 7.4). Type of data set: physicochemical. The note with it: for solubility kinetic at 2 h: phosphate buffer, pH 7.4, aqueous buffer, kinetic from dmso stock, 50 mM phosphate buffer pH 7.4, read-out: Ksol, pH 7.4. A digest of the protocol:
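Sample mixed with 50 mM phosphate buffer, pH 7.4, vortexed, then shaken 2 h at room temperature and centrifuged. Filtrate analysed by HPLC-UV and LC-MS/MS, with solubility read from peak areas against a standard calibration curve.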

For data set [4], the target named is KRAS G12C (GMPPNP-loaded) and cRAF (Ras-binding domain) interaction (Homo sapiens (Human), UniProt P01116, C118S/C51S/C80L/G12C). The experiment in a line: Inhibition of KRAS G12C and cRAF binding (AlphaScreen). The conditions noted are these: KRAS G12C loaded with GMPPNP, cRaf RBD, 2 hours preincubation; read-out: Raf-1 RBD K-Ras IC50. The gist of the method: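 GMPPNP-loaded KRAS G12C in 25 mM Hepes pH 7.4, 150 mM NaCl, 5 mM MgCl2, 0.01% Triton X-100, 10 μM GMPPNP, 2% DMSO, preincubated with compound 2 h at room temperature. cRAF RBD plus AlphaScreen beads then added for 60-90 min; signal read at 570 nm.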
Sequence of KRAS G12C (GMPPNP-loaded) and cRAF (Ras-binding domain) interaction (P01116 other isoform, or with tags, fused parts or gaps G12C/C51S/C80L/C118S): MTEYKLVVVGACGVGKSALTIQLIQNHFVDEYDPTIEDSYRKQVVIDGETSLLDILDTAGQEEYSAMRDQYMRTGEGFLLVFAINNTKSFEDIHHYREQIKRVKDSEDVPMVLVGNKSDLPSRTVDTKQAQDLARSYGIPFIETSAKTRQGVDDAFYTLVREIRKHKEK

Sequence of KRAS G12C (GMPPNP-loaded) and PI3Ka (Ras-binding domain) interaction (P01116 other isoform, or with tags, fused parts or gaps G12C/C51S/C80L/C118S): as above

Regarding `Cc1noc(/C=C/C(=O)N2CCN(c3nc(OCC45CCCN4CCC5)nc4c3CCN(c3cccc5cccc(Cl)c35)C4)C[C@@H]2CC#N)n1` [Example 1, (S,E)-2-(4-(7-(8-chloronaphthalen-1-yl)-2-((hexahydro-1H-pyrrolizin-7a-yl)methoxy)-5,6,7,8-tetrahydropyrido[3,4-d]pyrimidin-4-yl)-1-(3-(3-methyl-1,2,4-oxadiazol-5-yl)acryloyl)piperazin-2-yl)acetonitrile], the half-maximal inhibitory concentration (IC50) is under 10 nM in data set [1] and 10 to 100 nM in data set [4]. For the same molecule, the logD in data set [2] worked out at 2.9. In addition, the “Ksol, pH 7.4 (ug/mL)” value in data set [3] (50 mM phosphate buffer pH 7.4) is listed as 111.20 ug/mL.

Turning to `Cc1noc(/C=C/C(=O)N2CCN(c3nc(OC[C@@]45CCCN4C[C@H](F)C5)nc4c(F)c(-c5cccc6cccc(Cl)c56)ncc34)C[C@@H]2CC#N)n1` [Example 4, 2-((S)-4-(7-(8-chloronaphthalen-1-yl)-8-fluoro-2-(((2R,7aS)-2-fluorotetrahydro-1H-pyrrolizin-7a(5H)-yl)methoxy)pyrido[4,3-d]pyrimidin-4-yl)-1-((E)-3-(3-methyl-1,2,4-oxadiazol-5-yl)acryloyl)piperazin-2-yl)acetonitrile], the IC50 in data set [1] and in data set [4] was 10 to 100 nM each time. The logD in data set [2] was 3.54. The solubility kinetic at 2 h in data set [3] was 3.98 µg/mL (≈ 5.48 µM).

In the case of `N#CC[C@H]1CN(c2nc(OC[C@@]34CCCN3C[C@H](F)C4)nc3c2CCN(c2cccc4ccc(F)c(Cl)c24)C3)CCN1C(=O)/C=C/c1nc(C2COC2)no1` [Example 8, 2-((S)-4-(7-(8-chloro-7-fluoronaphthalen-1-yl)-2-(((2R,7aS)-2-fluorohexahydro-1H-pyrrolizin-7a-yl)methoxy)-5,6,7,8-tetrahydropyrido[3,4-d]pyrimidin-4-yl)-1-((E)-3-(3-(oxetan-3-yl)-1,2,4-oxadiazol-5-yl)acryloyl)piperazin-2-yl)acetonitrile], the IC50 in data set [1] and in data set [4] was under 10 nM each time. For the same molecule, in data set [2], the logD turned out to be 3.78. The solubility kinetic at 2 h in data set [3] came out at 0.01 µg/mL (≈ 0.0129 µM).

`Cc1nsc(/C=C/C(=O)N2CCN(c3nc(OCC45CCCN4CCC5)nc4c3CCN(c3cccc5cccc(Cl)c35)C4)C[C@@H]2CC#N)n1` [Example 9, (S,E)-2-(4-(7-(8-chloronaphthalen-1-yl)-2-((hexahydro-1H-pyrrolizin-7a-yl)methoxy)-5,6,7,8-tetrahydropyrido[3,4-d]pyrimidin-4-yl)-1-(3-(3-methyl-1,2,4-thiadiazol-5-yl)acryloyl)piperazin-2-yl)acetonitrile]: the IC50 in data set [1] and in data set [4] was under 10 nM each time. Further, the logD in data set [2] came out at 3.55. Besides, the solubility kinetic at 2 h in data set [3] is 67 µg/mL (≈ 94.4 µM).

On to `N#CC[C@H]1CN(c2nc(OCC34CCCN3CCC4)nc3c2CCN(c2cccc4cccc(Cl)c24)C3)CCN1C(=O)/C=C/c1ccncn1` [Example 10, (S,E)-2-(4-(7-(8-chloronaphthalen-1-yl)-2-((hexahydro-1H-pyrrolizin-7a-yl)methoxy)-5,6,7,8-tetrahydropyrido[3,4-d]pyrimidin-4-yl)-1-(3-(pyrimidin-4-yl)acryloyl)piperazin-2-yl)acetonitrile], for which the IC50 in data set [1] and in data set [4] was under 10 nM each time. In data set [2], the logD came to 2.93. In addition, the solubility kinetic at 2 h in data set [3] is 99 µg/mL (≈ 143 µM).

For `CC(F)(F)c1noc(/C=C/C(=O)N2CCN(c3nc(OC[C@@]45CCCN4C[C@H](F)C5)nc4c(F)c(-c5cccc6cccc(Cl)c56)ncc34)C[C@@H]2CC#N)n1` [Example 14, 2-((S)-4-(7-(8-chloronaphthalen-1-yl)-8-fluoro-2-(((2R,7aS)-2-fluorotetrahydro-1H-pyrrolizin-7a(5H)-yl)methoxy)pyrido[4,3-d]pyrimidin-4-yl)-1-((E)-3-(3-(1,1-difluoroethyl)-1,2,4-oxadiazol-5-yl)acryloyl)piperazin-2-yl)acetonitrile], the IC50 in data set [1] and in data set [4] was under 10 nM in each case. Moreover, in data set [2], the logD turned out to be 4.49. The solubility kinetic at 2 h in data set [3] came to 0.04 µg/mL (≈ 0.0515 µM).

As to `N#CC[C@H]1CN(c2nc(OCC34CCCN3CCC4)nc3c2CCN(c2cccc4cccc(Cl)c24)C3)CCN1C(=O)/C=C/c1nc(C(F)(F)F)no1` [Example 17, (S,E)-2-(4-(7-(8-chloronaphthalen-1-yl)-2-((hexahydro-1H-pyrrolizin-7a-yl)methoxy)-5,6,7,8-tetrahydropyrido[3,4-d]pyrimidin-4-yl)-1-(3-(3-(trifluoromethyl)-1,2,4-oxadiazol-5-yl)acryloyl)piperazin-2-yl)acetonitrile], the IC50 in data set [1] and in data set [4] was under 10 nM in each case. Besides, the logD in data set [2] was determined as 4.32. Also, the solubility kinetic at 2 h in data set [3] stood at 0.01 µg/mL (≈ 0.0134 µM).

Regarding `N#CC[C@H]1CN(c2nc(OC[C@@]34CCCN3C[C@H](F)C4)nc3c(F)c(-c4cccc5ccc(F)c(Cl)c45)ncc23)CCN1C(=O)/C=C/CN1CCCOCC1` [Example 70, 2-((S)-1-((E)-4-(1,4-oxazepan-4-yl)but-2-enoyl)-4-(7-(8-chloro-7-fluoronaphthalen-1-yl)-8-fluoro-2-(((2R,7aS)-2-fluorotetrahydro-1H-pyrrolizin-7a(5H)-yl)methoxy)pyrido[4,3-d]pyrimidin-4-yl)piperazin-2-yl)acetonitrile], the 50% inhibitory concentration (IC50) in data set [1] and in data set [4] was under 10 nM throughout. Moreover, the logD in data set [2] was found to be 3.25. Further, the solubility kinetic at 2 h in data set [3] came to 124 µg/mL (≈ 160 µM).

As for `N#CC[C@H]1CN(c2nc(OC[C@@]34CCCN3C[C@H](F)C4)nc3c(F)c(-c4cccc5ccc(F)c(Cl)c45)ncc23)CCN1C(=O)/C=C/CN1C[C@@H]2C[C@H]1CO2` [Example 71, 2-((S)-1-((E)-4-((1S,4S)-2-oxa-5-azabicyclo[2.2.1]heptan-5-yl)but-2-enoyl)-4-(7-(8-chloro-7-fluoronaphthalen-1-yl)-8-fluoro-2-(((2R,7aS)-2-fluorotetrahydro-1H-pyrrolizin-7a(5H)-yl)methoxy)pyrido[4,3-d]pyrimidin-4-yl)piperazin-2-yl)acetonitrile], the IC50 in data set [1] and in data set [4] was under 10 nM in each case. For the same molecule, in data set [2], the logD was found to be 2.9. For the same molecule, in data set [3], the solubility kinetic at 2 h turned out to be 88.9 µg/mL (≈ 115 µM).

Take `N#CC[C@H]1CN(c2nc(OC[C@@]34CCCN3C[C@H](F)C4)nc3c(F)c(-c4cccc5ccc(F)c(Cl)c45)ncc23)CCN1C(=O)/C=C/CN1C[C@H]2C[C@@H]1CO2` [Example 72, 2-((S)-1-((E)-4-((1R,4R)-2-oxa-5-azabicyclo[2.2.1]heptan-5-yl)but-2-enoyl)-4-(7-(8-chloro-7-fluoronaphthalen-1-yl)-8-fluoro-2-(((2R,7aS)-2-fluorotetrahydro-1H-pyrrolizin-7a(5H)-yl)methoxy)pyrido[4,3-d]pyrimidin-4-yl)piperazin-2-yl)acetonitrile]: the IC50 in data set [1] and in data set [4] was under 10 nM each time. Moreover, the logD in data set [2] worked out at 3.12. For the same molecule, the solubility kinetic at 2 h in data set [3] was 143 µg/mL (≈ 185 µM).

As to `N#CC[C@H]1CN(c2nc(OC[C@@]34CCCN3C[C@H](F)C4)nc3c(F)c(-c4cccc5ccc(F)c(Cl)c45)ncc23)CCN1C(=O)/C=C/CN1CC2CC(C1)O2` [Example 77, 2-((2S)-1-((E)-4-(6-oxa-3-azabicyclo[3.1.1]heptan-3-yl)but-2-enoyl)-4-(7-(8-chloro-7-fluoronaphthalen-1-yl)-8-fluoro-2-(((2R,7aS)-2-fluorotetrahydro-1H-pyrrolizin-7a(5H)-yl)methoxy)pyrido[4,3-d]pyrimidin-4-yl)piperazin-2-yl)acetonitrile], the concentration for half-maximal inhibition (IC50) in data set [1] and in data set [4] was under 10 nM throughout. In addition, the logD in data set [2] is 2.92. Further, the solubility kinetic at 2 h in data set [3] is 116 µg/mL (≈ 151 µM).

Consider `N#CC[C@H]1CN(c2nc(OC[C@@]34CCCN3C[C@H](F)C4)nc3c(F)c(-c4cccc5ccc(F)c(Cl)c45)ncc23)CCN1C(=O)/C=C/CN1CC2CCC(C1)O2` [Example 78, 2-((2S)-1-((E)-4-(8-oxa-3-azabicyclo[3.2.1]octan-3-yl)but-2-enoyl)-4-(7-(8-chloro-7-fluoronaphthalen-1-yl)-8-fluoro-2-(((2R,7aS)-2-fluorotetrahydro-1H-pyrrolizin-7a(5H)-yl)methoxy)pyrido[4,3-d]pyrimidin-4-yl)piperazin-2-yl)acetonitrile], for which the IC50 in data set [1] and in data set [4] was under 10 nM throughout. Also, in data set [2], the logD came to 3.64. Moreover, the solubility kinetic at 2 h in data set [3] was determined as 85 µg/mL (≈ 108 µM).
